Results: patent US6734175B2, “Treatments for obesity and methods for identifiying compounds useful for treating obesity” (Pfizer Inc., priority 2000, dated 2004)

Columns and labels:
melanocortin-4 receptors = biological target: T1, melanocortin-4 receptors (Homo sapiens, UniProt P32245); test: [125I]AGRP competition binding assay; settings: particularly melanocortin-4 receptors; qualitative statement
T1 construct: host or cells: membranes from unnamed cells expressing the receptor
Excerpt: (§1) The first radioligand binding assay is an [^125I]AGRP competition binding assay. Compounds that attenuate binding of [^125I]AGRP or AGRP would be detected in this assay. It is noted that compounds can attenuate the binding of AGRP to melanocortin 3 and/or 4 receptors by binding to melanocortin 3 and/or 4 receptors or by binding to AGRP itself. The second radioligand binding assay is an assay using radiolabeled melanocortin ligands, for example, [^125I]norleucine D-phenylalanine melanocyte stimulating hormone ([^125I]NDP-MSH). Membranes prepared from cells expressing either melanocortin 3 or 4 receptors are used in the radioligand binding assays. The preparation and use of [^125I]AGRP and [^125I]NDP-MSH is well known in the art. See, for example, Dang et al., Molecular Endocrinology, 13, 148-155 (1999). In addition, the preparation and use of membranes from cells expressing either melanocortin 3 or 4 receptors are also well known in the art. See, Bass, et al., Molecular Pharmacology, 50, 709-715 (1996).
[^125I] AGRP Competition Binding Assay
(§2) Specific Activity of [^125I]AGRP is 2200 Ci/mmole. The final concentration of [^125I]AGRP is 100 pM. Therefore, a 2 nM (20×) stock needs to be made in binding buffer. The concentration of [^125I]AGRP varies from 40-60 nM. [^125I]AGRP can be obtained from New England Nuclear, Boston, Mass.
(§3) The competition assay can be run using 96 well plates. […]

melanocortin receptors = test: [125I]NDP-MSH competition binding assay; settings: qualitative statement
Excerpt: as §1
[^125I]NDP-MSH Competition Binding Assay
as §2, with “of [^125I]NDP-MSH” for “of [^125I]AGRP”, “is 250” for “is 100”, “a 5” for “a 2”, “nM. [^125I]NDP-MSH” for “nM. [^125I]AGRP”
as §3

T1 sequence (P32245 whole entry): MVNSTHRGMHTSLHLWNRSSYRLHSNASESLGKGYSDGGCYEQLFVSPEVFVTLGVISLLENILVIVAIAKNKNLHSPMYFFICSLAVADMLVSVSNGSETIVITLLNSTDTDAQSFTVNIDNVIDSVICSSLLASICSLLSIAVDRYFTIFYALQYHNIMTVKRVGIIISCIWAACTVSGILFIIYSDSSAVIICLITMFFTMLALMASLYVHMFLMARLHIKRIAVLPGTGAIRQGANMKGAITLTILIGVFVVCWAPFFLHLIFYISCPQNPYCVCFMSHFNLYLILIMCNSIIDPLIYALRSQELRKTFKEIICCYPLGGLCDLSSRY

SMILES: O=[N+]([O-])c1ccc(N2C3c4ccccc4CCN3N(c3ccc([N+](=O)[O-])cc3)C3c4ccccc4CCN32)cc1 (centres unmarked) [8,16-bis-(4-nitro-phenyl)-5,6,8,8a,13,14,16,16a-octahydro-[1,2,4,5]tetrazino[6,1-a;3,4-a′]diisoquinoline]
- binding of agouti-related protein to melanocortin receptors (melanocortin-4 receptors): attenuates the binding of agouti-related protein to melanocortin receptors
- binding of α-melanocyte stimulating hormone to melanocortin receptors (melanocortin receptors): does not attenuate the binding of α-melanocyte stimulating hormone to melanocortin receptors
